Experimental data taken from PubChem BioAssay AID264 (DTP/NCI, 2004).
Several values for one entry are separate records, joined by “and”; a condition that tells them apart may be missing. Equal entries are not always repeated. Inconclusive results are not listed.

System: nude mice, LX-1 lung xenograft intrarenal, tumor weight T/C
Test: NCI In Vivo Anticancer Drug Screen. Data for tumor model Human Lung LX-1 Xenograft (intrarenal inoculation) in NU/NU Swiss (nude) mice
Conditions: endpoint: mean tumor weight change, higher = larger tumour
In short: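 In vivo, transplantable tumor; compound vs vehicle arms; tumor size measured; value = T/C.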

[1] = dose: 300.0 mg/kg/injection, schedule: Q04DX003 (sc), vehicle: saline
[2] = dose: 600.0 mg/kg/injection, schedule: Q04DX003 (sc), vehicle: saline
[3] = dose: 1200.0 mg/kg/injection, schedule: Q04DX003 (sc), vehicle: saline
[4] = dose: 150.0 mg/kg/injection, schedule: Q04DX003 (sc), vehicle: saline with Tween-80
[5] = dose: 300.0 mg/kg/injection, schedule: Q04DX003 (sc), vehicle: saline with Tween-80
[6] = dose: 50.0 mg/kg/injection, schedule: Q01DX010 (sc), vehicle: saline with Tween-80
[7] = dose: 100.0 mg/kg/injection, schedule: Q01DX010 (sc), vehicle: saline with Tween-80
[8] = dose: 200.0 mg/kg/injection, schedule: Q01DX010 (sc), vehicle: saline with Tween-80
[9] = dose: 400.0 mg/kg/injection, schedule: Q01DX010 (sc), vehicle: saline with Tween-80
[10] = dose: 12.5 mg/kg/injection, schedule: Q04DX003 (sc), vehicle: saline with Tween-80
[11] = dose: 25.0 mg/kg/injection, schedule: Q04DX003 (sc), vehicle: saline with Tween-80
[12] = dose: 50.0 mg/kg/injection, schedule: Q04DX003 (sc), vehicle: saline with Tween-80
[13] = dose: 600.0 mg/kg/injection, schedule: Q04DX003 (sc), vehicle: saline with Tween-80
[14] = dose: 1200.0 mg/kg/injection, schedule: Q04DX003 (sc), vehicle: saline with Tween-80
[15] = dose: 2400.0 mg/kg/injection, schedule: Q04DX003 (sc), vehicle: saline with Tween-80

OCC1OC(n2cnc3c(=S)nc[nH]c32)C(O)C1O (centres undefined)
T/C (dose: 100.0 mg/kg/injection, schedule: Q01DX010 (sc), vehicle: saline): 86 % of control | T/C [1]: 75 % of control | T/C [2]: 99 % of control | T/C [3]: 124 % of control | T/C (dose: 2400.0 mg/kg/injection, schedule: Q04DX003 (sc), vehicle: saline): 65 % of control

O=C1NCC(Br)C(=O)N1 (centres undefined)
T/C [4]: 99 % of control | T/C [5]: 90 % of control

C1=CCOCOC1
T/C [6]: 83 % of control | T/C [7]: 105 % of control | T/C [8]: 81 % of control | T/C [9]: 46 % of control

CN(C)[C@@H]1C(=O)C(C(N)=O)=C(O)[C@@]2(O)C(=O)C3=C(O)c4c(O)ccc(Cl)c4[C@@](C)(O)[C@H]3C[C@@H]12
T/C [1]: 81 % of control | T/C [2]: 200 % of control | T/C [3]: 220 % of control

NC(=S)c1ncn(C2OC(CO)C(O)C2O)c1N (centres undefined)
T/C (dose: 150.0 mg/kg/injection, schedule: Q04DX003 (sc), vehicle: suspension in saline): 87 % of control | T/C (dose: 300.0 mg/kg/injection, schedule: Q04DX003 (sc), vehicle: suspension in saline): 102 % of control | T/C (dose: 600.0 mg/kg/injection, schedule: Q04DX003 (sc), vehicle: suspension in saline): 98 % of control | T/C (dose: 1200.0 mg/kg/injection, schedule: Q04DX003 (sc), vehicle: suspension in saline): 103 % of control

Clc1ccc(CN2COc3c(ccc4cccnc34)C2)cc1Cl
T/C [7]: 110 % of control | T/C [8]: 87 % of control | T/C [9]: 97 % of control | T/C (dose: 800.0 mg/kg/injection, schedule: Q01DX010 (sc), vehicle: saline with Tween-80): 110 % of control

ClCC[N+]12CC[N+](CCCl)(CC1)C2
T/C [6]: 42 % of control and 56 % of control | T/C [9]: 24 % of control | T/C (dose: 600.0 mg/kg/injection, schedule: Q04DX003 (sc), vehicle: water): 54 % of control

Nc1nc(N)c2c(Cl)c(CNc3ccc(Cl)c(Cl)c3)ccc2n1
T/C (dose: 25.0 mg/kg/injection, schedule: Q01DX010 (sc), vehicle: saline with Tween-80): 111 % of control

C[n+]1ccc2cc(N)c3c4ccccc4sc3c2c1
T/C (dose: 6.25 mg/kg/injection, schedule: Q04DX003 (sc), vehicle: saline with Tween-80): 67 % of control | T/C [10]: 93 % of control | T/C [11]: 70 % of control | T/C [12]: 74 % of control

CCOC(=O)C(N)C[S][Sn]([CH3])([CH3])[Cl] (centres undefined)
T/C (dose: 18.75 mg/kg/injection, schedule: Q04DX003 (sc), vehicle: saline): 52 % of control | T/C (dose: 37.5 mg/kg/injection, schedule: Q04DX003 (sc), vehicle: saline): 57 % of control | T/C (dose: 75.0 mg/kg/injection, schedule: Q04DX003 (sc), vehicle: saline): 54 % of control

O=C(O)CC(=O)O.[NH-]CC[NH-].[Pt+2]
T/C (dose: 12.5 mg/kg/injection, schedule: Q01DX010 (sc), vehicle: dextrose): 100 % of control | T/C (dose: 25.0 mg/kg/injection, schedule: Q01DX010 (sc), vehicle: dextrose): 74 % of control | T/C (dose: 50.0 mg/kg/injection, schedule: Q01DX010 (sc), vehicle: dextrose): 74 % of control

Nc1nc([Se])c2ncn(C3OC(CO)C(O)C3O)c2n1 (centres undefined)
T/C (dose: 1.0 mg/kg/injection, schedule: Q01DX010 (sc), vehicle: saline): 264 % of control | T/C (dose: 2.0 mg/kg/injection, schedule: Q01DX010 (ip), vehicle: saline): 46 % of control | T/C (dose: 4.0 mg/kg/injection, schedule: Q01DX010 (ip), vehicle: saline): 31 % of control | T/C (dose: 6.66 mg/kg/injection, schedule: Q04DX003 (ip), vehicle: saline): 82 % of control | T/C (dose: 6.66 mg/kg/injection, schedule: Q04DX003 (sc), vehicle: saline): 45 % of control | T/C (dose: 8.0 mg/kg/injection, schedule: Q01DX010 (ip), vehicle: saline): 41 % of control | T/C (dose: 13.33 mg/kg/injection, schedule: Q04DX003 (ip), vehicle: saline): 121 % of control | T/C (dose: 13.33 mg/kg/injection, schedule: Q04DX003 (sc), vehicle: saline): 62 % of control | T/C (dose: 16.0 mg/kg/injection, schedule: Q01DX010 (ip), vehicle: saline): 61 % of control | T/C (dose: 16.0 mg/kg/injection, schedule: Q01DX010 (sc), vehicle: saline): 35 % of control | T/C (dose: 26.65 mg/kg/injection, schedule: Q04DX003 (ip), vehicle: saline): 91 % of control | T/C (dose: 26.65 mg/kg/injection, schedule: Q04DX003 (sc), vehicle: saline): 95 % of control | T/C (dose: 53.3 mg/kg/injection, schedule: Q04DX003 (ip), vehicle: saline): 44 % of control

OCC1OC(n2cnc3c2NC=NC[C@H]3O)CC1O (some centres undefined)
T/C (dose: 1.0 mg/kg/injection, schedule: Q01DX010 (sc), vehicle: water): 122 % of control | T/C (dose: 2.0 mg/kg/injection, schedule: Q01DX010 (sc), vehicle: water): 68 % of control and 70 % of control and 91 % of control

CCC1OCC(C(Cl)CCl)O1 (centres undefined)
T/C (dose: 300.0 mg/kg/injection, schedule: Q04DX003 (sc), vehicle: Klucel (hydroxypropylcellulose) (HPC)): 115 % of control | T/C (dose: 600.0 mg/kg/injection, schedule: Q04DX003 (sc), vehicle: Klucel (hydroxypropylcellulose) (HPC)): 88 % of control | T/C (dose: 1200.0 mg/kg/injection, schedule: Q04DX003 (sc), vehicle: Klucel (hydroxypropylcellulose) (HPC)): 26 % of control

CN=C(N)N/N=C(\c1ccccc1)c1ccc(Br)cc1
T/C [10]: 88 % of control | T/C [11]: 122 % of control | T/C [12]: 103 % of control

O=[N+]([O-])c1ccc(N2CCOCC2)c2c1no[n+]2[O-]
T/C [4]: 101 % of control | T/C [5]: 57 % of control | T/C [13]: 77 % of control | T/C [14]: 98 % of control

NC(=O)c1[nH]nc(C2OC(CO)C(O)C2O)c1O (centres undefined)
T/C (dose: 0.62 mg/kg/injection, schedule: Q04DX003 (sc), vehicle: saline): 77 % of control | T/C (dose: 1.25 mg/kg/injection, schedule: Q04DX003 (sc), vehicle: saline): 65 % of control | T/C (dose: 2.5 mg/kg/injection, schedule: Q04DX003 (sc), vehicle: saline): 109 % of control | T/C (dose: 5.0 mg/kg/injection, schedule: Q04DX003 (sc), vehicle: saline): 78 % of control

O=CC(=O)c1ccc(O)cc1
T/C (dose: 150.0 mg/kg/injection, schedule: Q04DX003 (sc), vehicle: saline): 51 % of control | T/C [1]: 49 % of control | T/C [2]: 58 % of control

C[Si](C)(CCl)N[Si](C)(C)CCl
T/C [14]: 81 % of control

CCN1C=C/C(=C\C=C/c2cc[n+](CC)c3ccccc23)c2ccccc21
T/C (dose: 0.25 mg/kg/injection, schedule: Q01DX010 (sc), vehicle: saline): 195 % of control

c1ccc2sc(SSN3CC4CCC(CC4)C3)nc2c1
T/C [6]: 81 % of control | T/C [7]: 76 % of control | T/C [8]: 48 % of control | T/C [9]: 50 % of control

COc1cccc2c1C(=O)c1c(O)c3c(c(O)c1C2=O)C[C@@](O)(/C(C)=N\O)C[C@@H]3OC1CC(N)C(O)C(C)O1 (some centres undefined)
T/C (dose: 25.0 mg/kg/injection, schedule: Q04DX003 (sc), vehicle: saline): 95 % of control | T/C (dose: 50.0 mg/kg/injection, schedule: Q04DX003 (sc), vehicle: saline): 76 % of control

CN1C(=O)NC(c2ccc(Cl)cc2)(c2ccc(Cl)cc2)C1=O
T/C [6]: 212 % of control | T/C [7]: 191 % of control | T/C [9]: 64 % of control

CCCC(=O)O.CCCC(=O)O.CCCC(=O)O.CCCC(=O)O.[Rh].[Rh]
T/C (dose: 2.0 mg/kg/injection, schedule: Q04DX003 (sc), vehicle: suspension in saline): 48 % of control | T/C (dose: 4.0 mg/kg/injection, schedule: Q04DX003 (sc), vehicle: suspension in saline): 51 % of control | T/C (dose: 8.0 mg/kg/injection, schedule: Q04DX003 (sc), vehicle: suspension in saline): 42 % of control | T/C (dose: 16.0 mg/kg/injection, schedule: Q04DX003 (sc), vehicle: suspension in saline): 55 % of control

NC(=O)/C=C/c1c[nH]c2nccnc12
T/C (dose: 50.0 mg/kg/injection, schedule: Q04DX003 (sc), vehicle: water): 86 % of control

O=C(Nc1cccc(Cl)c1)ON1C(=O)C2C(C1=O)C1(Cl)C(Cl)C(Cl)C2(Cl)C1(Cl)Cl (centres undefined)
T/C [5]: 81 % of control | T/C [13]: 85 % of control | T/C [14]: 83 % of control

O=C1SC(c2ccccc2)=S=C1c1ccccc1
T/C [13]: 224 % of control | T/C [14]: 78 % of control | T/C [15]: 88 % of control

NC(=S)N/N=C\c1ncccc1OCc1cccc(N)c1
T/C [5]: 158 % of control | T/C [13]: 159 % of control | T/C [14]: 105 % of control | T/C [15]: 96 % of control
